# From patent US20130295143A1, “ELECTROPROCESSING OF ACTIVE PHARMACEUTICAL INGREDIENTS” (Massachusetts Institute of Technology, priority 2012, published 2013)
# “Also recorded” adds a separate entry of the source.
# Legend:
# Format in all cases: physicochemical
# [1] = USP dissolution test of compressed electrospun tablets vs compressed powder tablets; conditions: USP apparatus II, 50 rpm, 37° C., 900 mL; 0.1 N HCl for ABZ, 0.1 M Phosphate buffer for FAM; 150 mg 9 mm tablets, 1:2 API:PVP
# Description: Powder tablets were prepared by weighing out 50 mg API powder and 100 mg PVP powder, mixing for 1 min, and pressing into 9 mm tablets using the same press with the same insertion depth. The electrospun tablets were compared to the compressed powder tablets for analysis. […] Dissolution was performed using a Varian VK 7025 dissolution bath (Agilent, Santa Clara, Calif.) and a Cary 50 Bio UV spectrophotometer (Agilent, Santa Clara, Calif.). For ABZ the standard USP methods were used with 900 mL 0.1 N HCl media, apparatus II, 50 rpm paddle speed and a temperature of 37° C. For FAM standard USP methods were used with 900 mL 0.1 M Phosphate buffer media, apparatus II, 50 rpm paddle speed, and a temperature of 37° C. Measurements were made every minute for 90 minutes by probes inserted in the bath and connected to the spectrophotometer by fiber optic cables.
# [2] = Drug loading in electrospun fibers by UV-vis spectroscopy; conditions: 1:2 API:PVP, nominal API loading 33 wt %; average of three measurements
# Description: In order to determine the actual drug loading in the electrospun fibers, samples were analyzed with a Perkin-Elmer (Waltham, Mass.) double-beam Lambda25 UV-vis spectrophotometer. A standard curve was prepared for ABZ in methanol for concentrations from 0.005 mg/mL to 0.05 mg/mL at an absorbance of 295 nm and for FAM in methanol for concentrations from 0.002 mg/mL to 0.035 mg/mL at an absorbance of 286 nm. […] A known mass of electrospun mat was dissolved in a known volume of methanol and diluted such that the expected concentration of API fell within the concentration ranges covered by the standard curves. From the resulting measured concentration, the mass of API in the original mat sample, and thus the weight percent API in the electrospun mat was calculated. Three measurements were made per API and were averaged to give the reported value.
# [3] = Polymorphism of API before and after electrospinning (XRD, DSC); conditions: free-surface electrospinning from PVP/ethanol suspension
# Description: Scanning electron microscopy (SEM) was used to analyze the morphology of the fibers. A Quorum Technologies SC7640 high resolution gold/palladium sputter coater was used to coat the samples, and a JEOL 6060 SEM at 5 kV operating voltage was used to obtain images. Both X-ray diffraction (XRD) and differential scanning calorimetry (DSC) were used to confirm the presence of crystals and analyze the polymorph present in the electrospun fibers. XRD was performed on a PANalytical X′Pert Pro with a reflection-transmission spinner PW 3064/60 sample stage and a Cu X-ray source with a 1.54 Å wavelength. DSC was performed on a TA DSC Q2000 instrument using a 2-6 mg sample in an aluminum sample pan. The materials were heated at 10° C./min to 250° C. and 200° C. for ABZ and FAM, respectively.
SMILES,"dissolution amount, electrospun formulation relative to compressed powder tablet [1]",average loading of API in the electrospun fibers [2],polymorphism of the API through the electrospinning process [3]
"CCCSc1ccc2nc(NC(=O)OC)[nH]c2c1 [ABZ, albendazole]",more than twice the dissolution amount,31 wt %,retained their polymorphism throughout processing; also recorded: not significantly affected
"NC(N)=Nc1nc(CSCCC(N)=NS(N)(=O)=O)cs1 [FAM, famotidine]",more than twice the dissolution amount,26 wt %,retained their polymorphism throughout processing
